Data: US20250144067A1, “PERSONALIZED STARVATION THERAPY FOR CANCER” (Faeth Therapeutics, Inc., priority 2021, published 2025)
Where a name gives a salt, the structure may show the parent alone.

Assays:
[1] = tested on: NCI-H292 lung cancer cells; assay: FDA drug screening, complete media vs cholesterol-free media with simvastatin (TABLE 2); type: cell-based, human; conditions: for Cholesterol-free media + simvastatin (0.04 μM) / Complete Media: NCI-H292 cells
[2] = tested on: NCI-H292 lung cancer cells; assay: FDA drug screening, complete media vs cholesterol-free media without statin (TABLE 1); type: cell-based, human
[3] = drug in cholesterol-free media with simvastatin 0.04 μM
[4] = complete media vs cholesterol-free media + simvastatin (0.04 μM), […]
[5] = Complete minus Cholesterol-free; […]
[6] = NCI-H292 cells, cholesterol-free media without statin
[7] = complete media vs cholesterol-free media + simvastatin (0.04 μM), >0 enhanced anti-cancer activity, about 0 neutral, <0 antagonist
[8] = NCI-H292 cells, cholesterol-free media without statin, FDA drug library screen
[9] = NCI-H292 cells, complete media, FDA drug library screen
[10] = complete vs cholesterol-free media; >0 enhanced anti-cancer activity, about 0 neutral, <0 antagonist
[11] = FDA drug library screen, cholesterol-free media with simvastatin 0.04 μM
[12] = FDA drug library screen, complete media
[13] = complete media minus cholesterol-free media + simvastatin, >0 enhanced anti-cancer activity, about 0 neutral, <0 antagonist
[14] = Complete minus Cholesterol-free; >0 enhanced anti-cancer activity, about 0 neutral, <0 antagonist
[15] = cholesterol-free media with simvastatin 0.04 μM, FDA drug library screen (TABLE 2)
[16] = complete media, FDA drug library screen (TABLE 2)
[17] = complete media minus cholesterol-free media + simvastatin (0.04 μM), >0 enhanced anti-cancer activity, about 0 neutral, <0 antagonist
[18] = complete vs cholesterol-free media; greater than 0 enhanced anti-cancer activity, about 0 neutral, below 0 antagonists
[19] = FDA library drug in cholesterol-free media with simvastatin 0.04 μM
[20] = FDA library drug in complete media
[21] = Complete minus Cholesterol-free; greater than 0 enhanced anti-cancer activity, about 0 neutral, below 0 antagonist
[22] = NCI-H292 cells, FDA drug library screen, cholesterol-free media without statin
[23] = NCI-H292 cells, FDA drug library screen, complete media

CC(=O)Nc1ccc(C(=O)O)cc1.CC(=O)Nc1ccc(C(=O)O)cc1.CC(=O)Nc1ccc(C(=O)O)cc1.CC(O)CN(C)C.CC(O)CN(C)C.CC(O)CN(C)C.O=c1[nH]cnc2c1ncn2[C@@H]1O[C@H](CO)[C@@H](O)[C@H]1O [Inosine pranobex]
Cholesterol-free media + simvastatin (0.04 μM) [1, 3]: 1.233 | Complete Media ([1]; drug in complete media): 0.9799 | Difference [1, 4]: −0.25 | Difference [2, 5]: −0.24 | Cholesterol-free [2, 6]: 1.096 | Complete ([2]; NCI-H292 cells, complete media): 0.8599

CC(=O)OCC1=C(C(=O)O)N2C(=O)[C@@H](NC(=O)Cc3cccs3)[C@H]2SC1 [Cephalothin (sodium)]
Cholesterol-free media + simvastatin (0.04 μM) [1, 3]: 0.9867 | Complete Media ([1]; drug in complete media): 0.7901 | Difference [1, 7]: −0.20 | Cholesterol-free [2, 8]: 0.5607 | Complete [2, 9]: 1.228 | Difference [2, 10]: 0.67

O=[N+]([O-])c1cncn1CCN1CCOCC1 [Nimorazole]
Cholesterol-free media + simvastatin (0.04 μM) [1, 3]: 1.022 | Complete Media ([1]; drug in complete media): 0.8004 | Difference [1, 7]: −0.22 | Cholesterol-free [2, 8]: 0.576 | Complete [2, 9]: 0.9886 | Difference [2, 10]: 0.41

Fenticonazole (Nitrate)
Cholesterol-free media + simvastatin (0.04 μM) [1, 11]: 0.6564 | Complete Media [1, 12]: 1.167 | Difference [1, 13]: 0.51 | Cholesterol-free [2, 8]: 0.9899 | Difference [2, 10]: 0.08

Cc1onc(-c2c(Cl)cccc2Cl)c1C(=O)N[C@@H]1C(=O)N2[C@@H]1SC(C)(C)[C@@H]2C(=O)O [Dicloxacillin (Sodium hydrate)]
Cholesterol-free media + simvastatin (0.04 μM) [1, 11]: 1.145 | Complete Media [1, 12]: 1.008 | Difference [1, 7]: −0.14 | Difference [2, 14]: 0.01 | Cholesterol-free [2, 8]: 0.8462 | Complete [2, 9]: 0.855

O=C1[C@H]2CCCC[C@H]2C(=O)N1CCCCN1CCN(c2nsc3ccccc23)CC1 [Perospirone]
Cholesterol-free media + simvastatin (0.04 μM) [1, 15]: 0.9946 | Complete Media [1, 16]: 0.9329 | Difference [1, 17]: −0.06 | Cholesterol-free [2, 6]: 1.046 | Complete ([2]; NCI-H292 cells, complete media): 0.7154 | Difference [2, 18]: −0.33

Dihydroergocristine (mesylate)
Cholesterol-free media + simvastatin (0.04 μM) [1, 11]: 1.12 | Complete Media [1, 12]: 1.011 | Difference [1, 4]: −0.11 | Difference [2, 5]: −0.17

CCN1CCN(C(=O)N[C@@H](C(=O)N[C@@H]2C(=O)N3C(C(=O)O)=C(CSc4nnnn4C)CS[C@H]23)c2ccc(O)cc2)C(=O)C1=O [Cefoperazone (sodium salt)]
Cholesterol-free media + simvastatin (0.04 μM) [1, 3]: 1.213 | Complete Media ([1]; drug in complete media): 0.9749 | Difference [1, 7]: −0.24 | Cholesterol-free [2, 8]: 1.002 | Difference [2, 10]: 0.17

CC(=O)[C@H]1CC[C@H]2[C@@H]3C[C@H](C)C4=CC(=O)CC[C@]4(C)[C@H]3[C@@H](O)C[C@]12C [Medrysone]
Cholesterol-free media + simvastatin (0.04 μM) [1, 3]: 1.51 | Complete Media ([1]; drug in complete media): 1.254 | Difference [1, 7]: −0.26 | Cholesterol-free [2, 8]: 0.895 | Complete [2, 9]: 1.283 | Difference [2, 10]: 0.39

CC(C)=CCC/C(C)=C/CC/C(C)=C/CC/C(C)=C/CC1=C(C)C(=O)c2ccccc2C1=O [Menaquinone-4]
Cholesterol-free media + simvastatin (0.04 μM) [1, 19]: 1.094 | Complete Media [1, 20]: 0.773 | Difference [1, 7]: −0.32 | Cholesterol-free [2, 6]: 1.129 | Complete ([2]; NCI-H292 cells, complete media): 0.777 | Difference [2, 18]: −0.35

CC(C)(C)c1nc(-c2cccc(NS(=O)(=O)c3c(F)cccc3F)c2F)c(-c2ccnc(N)n2)s1 [Dabrafenib]
Cholesterol-free media + simvastatin (0.04 μM) [1, 15]: 0.7299 | Complete Media [1, 16]: 0.7037 | Difference [1, 17]: −0.03 | Difference [2, 21]: −0.18 | Cholesterol-free [2, 22]: 0.7255 | Complete [2, 23]: 0.5433

Cc1cc(CC(C)CC(C)(C)C)n(O)c(=O)c1.NCCO (stereo not shown) [Piroctone olamine]
Cholesterol-free media + simvastatin (0.04 μM) ([1]; cholesterol-free media with simvastatin 0.04 μM, cell growth value in FDA drug screen): 0 | Complete Media ([1]; complete media, cell growth value in FDA drug screen): 0.02737 | Difference [1, 13]: 0.03 | Difference [2, 14]: −0.05 | Cholesterol-free [2, 8]: 0.04765 | Complete [2, 9]: 0.0002612

O=C1O[C@H]([C@@H](O)CO)C(O)=C1O [L-Ascorbic acid]
Cholesterol-free media + simvastatin (0.04 μM) [1, 11]: 1.16 | Complete Media [1, 12]: 1.003 | Difference [1, 7]: −0.16 | Difference [2, 21]: −0.14 | Cholesterol-free [2, 22]: 1.001 | Complete [2, 23]: 0.8619

CCOC(=O)c1ncn2c1CN(C)C(=O)c1cc(F)ccc1-2 [Flumazenil]
Cholesterol-free media + simvastatin (0.04 μM) [1, 19]: 1.268 | Complete Media [1, 20]: 0.8397 | Difference [1, 7]: −0.43 | Difference [2, 14]: 0.05 | Cholesterol-free [2, 8]: 1.073 | Complete [2, 9]: 1.128

CC(=O)Nc1c(I)c(NC(C)=O)c(I)c(C(=O)O)c1I [Diatrizoic acid]
Cholesterol-free media + simvastatin (0.04 μM) [1, 11]: 1.834 | Difference [1, 17]: −1.00 | Difference [2, 21]: −0.07 | Cholesterol-free [2, 22]: 1.077 | Complete [2, 23]: 1.004
